Test [1] has as its system induction of effector macrophage by contact of human PBMC with lipopolysaccharide. Nature of the test: SPFC production by LPS stimulation (Test Example 1). The format is cell-based. Here is the method: A suppressive effect of the test compound to effector macrophage induction was investigated in vitro by an induction and production system of spontaneous plaque-forming cell (SPEC) mentioned in M. Ishibashi, S. Jiang, Y. Kokado, S. Takahara, T. Sonoda: Immunopharmacologic effects of immunosuppressive agents explored by a new effector generation assay. Transplant Proc., 21: 1854-1858, 1989.
Heparin-added peripheral blood (40 ml) was collected from a healthy person and the same amount of EDTA-added physiological saline was added. PBMC were obtained by a specific gravity centrifugal method using Ficoll-Hypaque (manufactured by Pharmacia Fine Chemicals). Self-plasma was added thereto and allowed to stand at 37° C. for 10 minutes and platelets were removed by a low-speed centrifugal separation. RPMI 1640 liquid containing 15 μg/ml of gentamicin and 2 mM L-glutamine was used for washing the PBMC. Concentration of the PBMC was adjusted to 2×10^6 cells/ml using the same liquid.
Each 200 μl of a solution containing 2×10^6 PBMC/ml prepared in the step 1 were added to each well of a micro test plate, lipopolysaccharide (hereinafter, abbreviated as LPS) was diluted with the RPMI 1640 liquid to make the final concentration 80 μg/ml and the said LPS solution was added to each well of the 200 μl-micro test plate. Further, each 50 μl of human serum of type AB were added so as to make the concentration 10% by weight. Two such micro test plates were prepared.
After that, to the above two micro test plates was added a solution where the test compound was diluted with 1% by weight of DMSO so as to make the concentration of the test compound 1 μM. Similarly were prepared each two micro test plates where the final concentrations of the test compound were 0.1 μM, 0.01 μM and 0.001 μM.
The culture liquid prepared as such was incubated for 6 days at 37° C. in 5% CO2.
The effector macrophage induced after the incubation was all recovered using a rubber-policeman (spatula made of rubber). A Hanks solution containing 5 μg/ml of gentamicin was used for washing and, using the said solution, there was prepared a solution where the concentration of the induced effector macrophage was 2×10^6 per ml.
With regard to autologous erythrocytes, those which were preserved at 4° C. in a phosphate physiological saline (hereinafter, abbreviated as PBS) to which 0.1% by weight of AB serum and autologous erythrocytes obtained from PBMC separation were used were used. The preserved autologous erythrocytes were washed for three times with a Hanks solution to which no serum was added and made into a solution of 4% by weight concentration using the said Hanks solution. Poly-L-lysine was added to a Terasaki plate and washed with PBS every 20 minutes at 37° C., the above-mentioned autologous erythrocyte solution was added thereto immediately, the mixture was allowed to stand at 37° C. for 30 minutes and the erythrocytes which were not adhered to the plate were removed to prepare a Terasaki plate to which self-erythrocytes in a monolayer were adhered.
A Hanks solution (4 μl) was added to the said Terasaki plate, 4 μl of a solution containing the induced effector macrophage obtained in the step 3 were added thereto and the mixture was allowed to stand at 37° C. for 2 hours. After completion of the reaction, it was fixed by formalin. Numbers of the produced SPFC which were adhered or phagocytized were measured.
A mean SPFC production number was calculated from the measured values of SPFC production when the concentration of the test compound was the same. SPFC production number per 1×10^6 of the induced effector macrophage was calculated and, from the recovered induced effector macrophage numbers, total SPFC production amount (S2) was calculated.
As a control, no test compound was added and the same operation as above was carried out to calculate the total SPFC production amount (S1). […]

Test [2] has as its system kidney of chronic puromycin nephrosis rat. Nature of the test: Puromycin chronic nephrosis model in rat (CPN, Test Example 4). It counts as in vivo. Here is the method:
Evaluation Using Puromycin Chronic Nephrosis Model in Rat
Male SD rat of 8 weeks age of about 250 g was used and […] of puromycin were intravenously administered once according to a method of Diamond, et al. (J. R. Diamond, I. Pesek, S. Ruggeri, M. J. Karnovsky: Essential fatty acid deficiency during acute puromycin nephrosis ameliorates late renal injury. Am. J. Physiol, 257: F798˜F807, 1989). There was induced a chronic puromycin nephrosis rat where albuminuria increased from about tenth to twelfth week. After eighth week from administration of puromycin, each of compound (9-1) and compound (6-1) was subcutaneously injected at the dose of 30 mg/kg/day everyday until the 22nd week.
As a functional evaluation of kidney, albumin in urine was measured every week using a kit for the measurement of albumin. On the 22nd week, the rat was killed and anatomized to observe functional and morphological changes of kidney.

In test [3] the test system is induction of effector macrophage by contact of human PBMC with mitomycin-treated human PBMC (allo-MLC). Description: SPFC production by allo-MLC stimulation (Test Example 2). It counts as cell-based.
Where [4] appears, read: 30 mg/kg/day subcutaneously from 8th to 22nd week after puromycin.

The structures appear in SMILES notation. Read-outs that look alike come from different tables or passages of the source.

For the compound `CCOC(=O)C(=O)CCC(=O)O` [(9-1), ethyl 2-ketoglutarate], the IC50 in test [1] (Table 5, read-out: Inhibiting Concentration for SPEC Production by LPS Stimulation (μM: IC50)) is greater than 1 µM; in test [1] (human PBMC with LPS 80 μg/ml, incubated 6 days, Table 1, read-out: SPFC Production Inhibiting Concentration by LPS Stimulation (μM: IC50)), greater than 1 µM; in test [3] (Table 5, read-out: Inhibiting Concentration for SPEC Production by allo-MLC Stimulation (μM: IC50)), 0.01 µM; in test [3] (human PBMC with mitomycin-treated human PBMC, incubated 6 days, Table 1, read-out: SPFC Production Inhibiting Concentration by all-MLC Stimulation (μM: IC50)), 0.01 µM. Further, the “suppression of lesion of tubulointerstitial tissues” value in test [2] (30 mg/kg/day subcutaneously) was “well suppressed”. Moreover, the “Rate of Cases where Glomerular Lesion was Suppressed” value in test [2] (setting [4]) is reported as 50% (3/6). Also, the “Rate of Cases where Lesion of Tubulointerstitial Tissue was Suppressed” value in test [2] (setting [4]) is listed as 83% (5/6). In test [3] (selectivity allo-MLC versus LPS stimulation, Table 1), the “Functional Classification” value is reported as “Group I”.

The values above are taken from US20050143453A1, “Selective preventing and therapeutic agents for progressive lesion after organic damage” (priority 2000, published 2005).
